Data reported in patent publication US20250283017A1, “CLEANING COMPOSITIONS WITH ALKYLATED AMINO ACID SURFACTANTS HAVING ANTIMICROBIAL PROPERTIES” (THE CLOROX COMPANY, priority 2024, published 2025).

Key:
Staphylococcus aureus = test: GST (germicidal spray test) AOAC 961.02 micro-efficacy of cleaning compositions; assay type: cell-based; conditions: 0.3 wt % alkylated amino acid, balance water, pH about 7, contact time 7 minutes; for GST efficacy in Cleaning Composition 1: 1 wt % lauryl amine oxide, 0.5 wt % butyl levulinate; for GST efficacy in Cleaning Composition 3: 1 wt % alkyl polyglucoside
Method: A number of tests were conducted for Cleaning Compositions 1-3 including different alkylated amino acids as set forth in Tables 1 and 2 as described herein. Tests were conducted using GST (germicidal spray test) testing method AOAC 961.02 for micro-efficacy (i.e., ability to kill bacteria) against Staphylococcus aureus. The contact time in the test method was 7 minutes, and the neutralizer utilized was Letheen Broth+0.07% Lecithin+0.5% Tween 80.

[1] = Stability of alkylated amino acid in cleaning composition 1 by HPLC-UV peak area vs t=0; assay type: physicochemical; conditions: HPLC-UV peak area relative to t=0; for % at t = 4 w (70° F.): 4 weeks; for % at t = 4 w (70° F.) / % at t = 8 w (70° F.): 70° F. (21° C.); for % at t = 8 w (70° F.) / % at t = 8 w (100° F.): 8 weeks; for % at t = 8 w (100° F.): 100° F. (38° C.)
Method: The cleaning compositions were prepared using the formulation previously described herein as cleaning composition 1, where each tested cleaning composition was comprised of the following: 0.3 wt % alkylated amino acid, 1 wt % surfactant (lauryl amine oxide), 0.5 wt % fragrance (butyl levulinate), and balance water (about 98.2 wt % water).
The stability tests were tested for amino acid stability at different temperatures, 70° F. (21° C.) and 100° F. (38° C.), over the following periods of time: 4 weeks (4w) and 8 weeks (8w). The samples tested were subjected to HPLC-UV analysis, and the peak areas of the plotted data corresponding to the alkylated amino acids in the samples at 4w and 8w were compared with the reference (sample at t=0) to obtain a percentage value (based upon measured area at different times divided by measured area of reference, t=0).
Percentage values of 70% or greater indicate adequate stability of the alkylated amino acids within the cleaning compositions over the 4 and 8 week time periods and at the given temperatures, where increasing percentage values (e.g., above 85%, 90% or even at or greater than 100%) indicate very stable cleaning compositions with little or no degradation of the alkylated amino acids within the compositions.

SMILES	% at t = 4 w (70° F.) [1] [%]	% at t = 8 w (70° F.) [1] [%]	% at t = 8 w (100° F.) [1] [%]	GST efficacy in Cleaning Composition 1 (Staphylococcus aureus) [%]	GST efficacy in Cleaning Composition 2 (Staphylococcus aureus) [%]	GST efficacy in Cleaning Composition 3 (Staphylococcus aureus) [%]
CCCCCCCCCCCC(=O)NC(CCCNC(=N)N)C(=O)OCC (stereo not shown) [Example 1]	80	71	27	>99.999	>99.999	–
CCCCCCCCCCCCNC(CCCNC(=N)N)C(=O)O (stereo not shown) [Example 2]	100	100	100	>99.999	>99.999	–
CCCCCCCCCCCCNC(=O)C(N)CCCNC(=N)N (stereo not shown) [Example 4]	106	112	81	>99.999	>99.999	–
CCCCCCCCCCCCNC(CCCNC(=N)N)C(=O)OCC (stereo not shown) [Example 5]	–	–	–	>99.999	>99.999	–
CCCCCCCCCCCC(=O)NC(CCCCN)C(=O)OCC (stereo not shown) [Example 16]	88	79	37	>99.999	>99.999	–
CCCCCCCCCCCCNC(CCCCN)C(=O)O (stereo not shown) [Example 17]	90	102	102	>99.999	>99.999	–
CCCCCCCCCCCCNC(=O)C(N)CCCCN (stereo not shown) [Example 20]	97	89	62	>99.999	>99.999	–
CCCCCCCCCCCC(=O)NCCCCC(N)C(=O)OCC (stereo not shown) [Example 21]	13	4	0	>99.999	>99.999	–
CCCCCCCCCCCCNCCCCC(N)C(=O)O (stereo not shown) [Example 22]	100	150	146	>99.999	>99.999	–
CCCCCCCCCCCCNCC(=O)OCC [Example 60]	8	0	0	>99.999	–	–
CCCCCCCCCCCCOC(=O)CN [Example 61]	0	0	0	>99.999	–	>99.8
CCCCCCCCCCCCNC(=O)CN [Example 62]	90	87	59	>99.999	–	>99.999
CCCCCCCCCCCCNC(CC(C)C)C(=O)OCC (stereo not shown) [Example 80]	93	85	89	99.99	99.4	–
CCCCCCCCCCCCOC(=O)C(N)CC(C)C (stereo not shown) [Example 81]	64	36	5	>99.999	95.3	>99.8
CCCCCCCCCCCCNC(=O)C(C)CC(C)C (stereo not shown) [Example 82]	90	100	93	>99.999	–	>99.999
CCCCCCCCCCCCNC(Cc1ccccc1)C(=O)OCC (stereo not shown) [Example 88]	93	91	74	99.999	–	–
CCCCCCCCCCCCOC(=O)C(N)Cc1ccccc1 (stereo not shown) [Example 89]	82	63	12	99.999	99.5	99.6

More lines, main results first:

% at t = 4 w (70° F.) [1] [%]	% at t = 8 w (70° F.) [1] [%]	% at t = 8 w (100° F.) [1] [%]	SMILES	GST efficacy in Cleaning Composition 1 (Staphylococcus aureus) [%]	GST efficacy in Cleaning Composition 2 (Staphylococcus aureus) [%]	GST efficacy in Cleaning Composition 3 (Staphylococcus aureus) [%]
104	101	96	CCCCCCCCCCCCNC(=O)C(N)Cc1ccccc1 (stereo not shown) [Example 90]	>99.999	–	>99.999
99	59	57	CCCCCCCCCCCCNC(Cc1ccc(O)cc1)C(=O)OCC (stereo not shown) [Example 92]	99.99	–	–
75	56	8	CCCCCCCCCCCCOC(=O)C(N)Cc1ccc(O)cc1 (stereo not shown) [Example 93]	>99.999	99.9	99.4
98	94	86	CCCCCCCCCCCCNC(=O)C(N)Cc1ccc(O)cc1 (stereo not shown) [Example 94]	>99.999	–	>99.999
94	87	35	CCCCCCCCCCCCNC(Cc1c[nH]c2ccccc12)C(=O)OCC (stereo not shown) [Example 96]	99.999	–	–
92	73	6	CCCCCCCCCCCCOC(=O)C(N)Cc1c[nH]c2ccccc12 (stereo not shown) [Example 97]	>99.999	–	–
118	135	121	CCCCCCCCCCCCNC(=O)C(N)Cc1c[nH]c2ccccc12 (stereo not shown) [Example 98]	>99.999	–	99.4
